Assay: xn = mol fraction of the nth substance listed
Settings: 100 kPa

CCCC[n+]1ccn(C)c1.O=[N+]([O-])[O-] + CCCCCO
viscosity [mPa·s]
Settings | 293.15 K | 303.15 K | 313.15 K | 323.15 K
x1 = 0.0824 | 5.32 | 3.84 | 2.94 | –
x1 = 0.1538 | 6.83 | 4.88 | 3.59 | 2.69
x1 = 0.2318 | 8.87 | 6.36 | 4.68 | 3.38
x1 = 0.3425 | 13.1 | 9.46 | 6.76 | 4.63
x1 = 0.4363 | – | 13.2 | 9.14 | 6.19
x1 = 0.5668 | – | 21 | 14 | 9.37
x1 = 0.6481 | 40.3 | 28.1 | – | 12.31
x1 = 0.7481 | – | 41 | 27 | 17.3
x1 = 0.8416 | 94.9 | 59.8 | – | 24.3
x1 = 0.9415 | 160 | 94 | – | –
x1 = 1 | 224 | 125 | 75.1 | 45.2

CCCCCO + CCCC[n+]1ccn(C)c1.O=[N+]([O-])[O-]
x2 = 0
Settings | viscosity [mPa·s]
293.15 K | 4.03
303.15 K | 3.04
313.15 K | 2.33
323.15 K | 1.81
